The assay deals with NFκB. Put plainly: NFκB induction in primary monocytes (FIG. 9A-9C). Format: cell-based.

The values that follow come from patent US20260199299A1, “BETA CARBOLINES AS TOPICAL ANTI-INFLAMMATORY AGENTS FOR APPLICATION TO MUCOUS MEMBRANES” (President and Fellows of Harvard College, priority 2022, published 2026).

Take `OCc1ccc(-c2nccc3c2[nH]c2ccccc23)o1` [Compound 8]: the “suppression of NFκB induction in primary monocytes” value is recorded as “suppression of NFκB induction”.
